Results: ChEMBL document CHEMBL1201862, “PubChem BioAssay data set” (2004)
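Step 1: Grow cells in 96-well plates. Step 2: Expose to compound for 48 hours at 5 concentrations. Step 3: Interpolate endpoints linearly; if unreached, use highest concentration. GI50 is the concentration that inhibits growth by half.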 Activity calls are given as the source filed them. Rule as the data show it: active = GI50 up to about 1.1 µM and inactive = higher.

Experiments:
Experiment in all cases: NCI anticancer screen, dose series, 48 h
CCRF-CEM = system: CCRF-CEM
COLO 205 = system: COLO 205
EKVX = system: EKVX
HOP-62 = system: HOP-62
KM12 = system: KM12
NCI-H460 = system: NCI-H460
SF-268 = system: SF-268
SF-295 = system: SF-295
SK-MEL-2 = system: SK-MEL-2
SK-OV-3 = system: SK-OV-3
SNB-19 = system: SNB-19
U-251 = system: U-251
UO-31 = system: UO-31
HOP-92 = system: HOP-92

Measured: GI50

COc1ccc(/C=C2\CN(C)Cc3c2nc(N)nc3-c2ccc(OC)cc2)cc1
inactive: CCRF-CEM 41.5 µM | COLO 205 95.7 µM | EKVX 33.6 µM | HOP-62 64.1 µM | KM12 61.2 µM | NCI-H460 > 100 µM | SF-268 > 100 µM | SF-295 > 100 µM | SK-MEL-2 83.4 µM | SK-OV-3 > 100 µM | SNB-19 > 100 µM | U-251 67.5 µM | UO-31 > 100 µM

COC1OC(C)C(OC(=O)C(C)(C)C)C(OS(=O)(=O)c2ccc(C)cc2)C1OS(=O)(=O)c1ccc(C)cc1 (centres undefined)
inactive: CCRF-CEM > 100 µM | COLO 205 > 100 µM | HOP-62 > 100 µM | KM12 > 100 µM | NCI-H460 > 100 µM | SF-268 > 100 µM | SF-295 > 100 µM | SK-MEL-2 > 100 µM | SK-OV-3 > 100 µM | SNB-19 > 100 µM | U-251 > 100 µM | UO-31 > 100 µM

Cc1cc(C)nc(Nc2nc3cc([N+](=O)[O-])ccc3[nH]2)n1
inactive: CCRF-CEM > 100 µM | COLO 205 > 100 µM | EKVX > 100 µM | HOP-62 > 100 µM | HOP-92 31.1 µM | KM12 > 100 µM | NCI-H460 > 100 µM | SF-268 > 100 µM | SF-295 > 100 µM | SK-MEL-2 > 100 µM | SNB-19 > 100 µM | U-251 > 100 µM | UO-31 > 100 µM

CCOC(=O)/N=C(\N)SCc1ccccc1
inactive: CCRF-CEM 24.7 µM | EKVX > 100 µM | HOP-62 > 100 µM | HOP-92 > 100 µM | KM12 > 100 µM | NCI-H460 > 100 µM | SF-268 > 100 µM | SF-295 > 100 µM | SK-MEL-2 44.6 µM | SK-OV-3 > 100 µM | SNB-19 > 100 µM | U-251 > 100 µM | UO-31 > 100 µM

NC(=O)N1N=C2c3ccccc3CC[C@@H]2C1c1ccccc1 (some centres undefined)
inactive: CCRF-CEM > 100 µM | COLO 205 > 100 µM | EKVX > 100 µM | HOP-62 > 100 µM | KM12 > 100 µM | NCI-H460 > 100 µM | SF-268 > 100 µM | SF-295 > 100 µM | SK-MEL-2 > 100 µM | SK-OV-3 > 100 µM | SNB-19 > 100 µM | U-251 > 100 µM | UO-31 > 100 µM

N#CCCN(c1ccc(/C=N/c2ccccc2)cc1)S(=O)(=O)c1ccccc1
inactive: CCRF-CEM > 100 µM | COLO 205 > 100 µM | EKVX 35.7 µM | HOP-62 23.7 µM | HOP-92 > 100 µM | KM12 16.5 µM | SF-268 > 100 µM | SF-295 12.4 µM | SK-MEL-2 > 100 µM | SK-OV-3 > 100 µM | SNB-19 > 100 µM | UO-31 17 µM

CCCCNC(=NC#N)NCCCC
inactive: COLO 205 38.2 µM | EKVX > 100 µM | HOP-62 > 100 µM | HOP-92 > 100 µM | KM12 > 100 µM | NCI-H460 > 100 µM | SF-268 > 100 µM | SF-295 > 100 µM | SK-MEL-2 > 100 µM | SK-OV-3 > 100 µM | SNB-19 > 100 µM | U-251 99.5 µM | UO-31 > 100 µM

Cc1nn(-c2nc3ccccc3s2)c2c1C(=O)c1ccccc1-2
inactive: COLO 205 > 100 µM | EKVX > 100 µM | HOP-62 > 100 µM | HOP-92 89.3 µM | KM12 > 100 µM | NCI-H460 > 100 µM | SF-268 > 100 µM | SF-295 > 100 µM | SK-MEL-2 > 100 µM | SK-OV-3 > 100 µM | SNB-19 > 100 µM | U-251 60.7 µM | UO-31 > 100 µM

O=[N+]([O-])c1ccc(C2CC(c3ccc(NCc4nc5ccccc5[nH]4)cc3)=NO2)cc1 (centres undefined)
inactive: CCRF-CEM 15.6 µM | COLO 205 > 100 µM | HOP-62 > 100 µM | HOP-92 > 100 µM | KM12 21.1 µM | NCI-H460 15.6 µM | SF-268 > 100 µM | SF-295 21.8 µM | SK-MEL-2 > 100 µM | SK-OV-3 > 100 µM | SNB-19 37.3 µM | U-251 36.4 µM | UO-31 > 100 µM

O=C(/C=N/c1ccccc1[S-])c1ccco1.O=C(/C=N/c1ccccc1[S-])c1ccco1.[Zn+2]
inactive: CCRF-CEM 2.95 µM | COLO 205 17.5 µM | HOP-62 6 µM | HOP-92 11.5 µM | KM12 12.8 µM | NCI-H460 3.87 µM | SF-268 17.9 µM | SF-295 3.78 µM | SK-MEL-2 15.8 µM | SK-OV-3 27.9 µM | SNB-19 5.78 µM | U-251 4.23 µM | UO-31 2.99 µM

COC1(C)CC2N(C(=O)c3ccccc3)N=C(c3ccccc3)CC2(C)O1 (centres undefined)
inactive: CCRF-CEM 84.5 µM | HOP-62 > 100 µM | HOP-92 > 100 µM | KM12 > 100 µM | NCI-H460 69.5 µM | SF-268 > 100 µM | SF-295 > 100 µM | SK-MEL-2 > 100 µM | SK-OV-3 > 100 µM | SNB-19 > 100 µM | UO-31 > 100 µM
